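Tested at 5 concentrations; 48 h exposure; 96-well plates; endpoints linearly interpolated, else capped at highest concentration. GI50 is the concentration that inhibits growth by half.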 Calls of active or inactive are those of the source. No stated cut-off is given here; in the data, active = GI50 up to about 1.1 µM and inactive = higher.
How the values were obtained:
Assay in all cases: NCI tumour cell line growth inhibition, 48 h
[1] = system: DLD-1
[2] = system: HT-29
[3] = system: SNB-78
[4] = system: SN12C
[5] = system: COLO 205
[6] = system: SF-295
[7] = system: HCT-116
[8] = system: SW-620
[9] = system: OVCAR-8
[10] = system: SR
[11] = system: SF-539
[12] = system: MOLT-4
[13] = system: HCC 2998
[14] = system: HL-60
[15] = system: EKVX
[16] = system: HOP-92
[17] = system: OVCAR-4
[18] = system: M14
[19] = system: KM12
[20] = system: UO-31
[21] = system: RXF 393
[22] = system: TK-10
[23] = system: SF-268
[24] = system: SK-MEL-2
[25] = system: K562
[26] = system: OVCAR-3
[27] = system: SNB-19
[28] = system: ACHN
[29] = system: XF498
[30] = system: A549
[31] = system: NCI-H522
[32] = system: HOP-18
[33] = system: NCI-H23
[34] = system: M19-MEL
[35] = system: SK-OV-3
[36] = system: DMS-273
[37] = system: CCRF-CEM
[38] = system: RXF 631
[39] = system: CAKI-1
[40] = system: 786-0
[41] = system: UACC-62
[42] = system: NCI-H460
[43] = system: OVCAR-5
[44] = system: SNB-75
[45] = system: LXFL 529
[46] = system: IGROV-1
[47] = system: SK-MEL-5
[48] = system: DMS-114
[49] = system: U-251
[50] = system: Malme-3M
[51] = system: KM-20L2
[52] = system: LOX IMVI
[53] = system: UACC-257
[54] = system: NCI-H226
[55] = system: RPMI-8226
[56] = system: SK-MEL-28
[57] = system: A498
[58] = system: HOP-62

## COc1cc2c(c(OC)c1OC)-c1ccc(SC)c(=O)cc1[C@@H](NCc1cccc([N+](=O)[O-])c1)CC2
[1]
  GI50: < 0.01 µM (active)
[2]
  GI50: < 0.01 µM (active)
[3]
  GI50: < 0.01 µM (active)
[4]
  GI50: < 0.01 µM (active)
[5]
  GI50: < 0.01 µM (active)
[6]
  GI50: < 0.01 µM (active)
[7]
  GI50: < 0.01 µM (active)
[8]
  GI50: < 0.01 µM (active)
[9]
  GI50: < 0.01 µM (active)
[10]
  GI50: > 100 µM (inactive)
[11]
  GI50: < 0.01 µM (active)
[12]
  GI50: < 0.01 µM (active)
[13]
  GI50: < 0.01 µM (active)
[14]
  GI50: < 0.01 µM (active)
[15]
  GI50: < 0.01 µM (active)
[16]
  GI50: < 0.01 µM (active)
[17]
  GI50: < 0.01 µM (active)
[18]
  GI50: < 0.01 µM (active)
[19]
  GI50: < 0.01 µM (active)
[20]
  GI50: 0.0366 µM (active)
[21]
  GI50: < 0.01 µM (active)
[22]
  GI50: < 0.01 µM (active)
[23]
  GI50: < 0.01 µM (active)
[24]
  GI50: < 0.01 µM (active)
[25]
  GI50: < 0.01 µM (active)
[26]
  GI50: < 0.01 µM (active)
[27]
  GI50: < 0.01 µM (active)
[28]
  GI50: < 0.01 µM (active)
[29]
  GI50: < 0.01 µM (active)
[30]
  GI50: < 0.01 µM (active)
[31]
  GI50: < 0.01 µM (active)
[32]
  GI50: > 100 µM (inactive)
[33]
  GI50: < 0.01 µM (active)
[34]
  GI50: < 0.01 µM (active)
[35]
  GI50: < 0.01 µM (active)
[36]
  GI50: < 0.01 µM (active)
[37]
  GI50: < 0.01 µM (active)
[38]
  GI50: < 0.01 µM (active)
[39]
  GI50: < 0.01 µM (active)
[40]
  GI50: < 0.01 µM (active)
[41]
  GI50: < 0.01 µM (active)
[42]
  GI50: < 0.01 µM (active)
[43]
  GI50: > 100 µM (inactive)
[44]
  GI50: 11.1 µM (inactive)
[45]
  GI50: < 0.01 µM (active)
[46]
  GI50: < 0.01 µM (active)
[47]
  GI50: < 0.01 µM (active)
[48]
  GI50: < 0.01 µM (active)
[49]
  GI50: < 0.01 µM (active)
[50]
  GI50: < 0.01 µM (active)
[51]
  GI50: < 0.01 µM (active)
[52]
  GI50: < 0.01 µM (active)
[53]
  GI50: < 0.01 µM (active)
[54]
  GI50: < 0.01 µM (active)

## Cc1ccc(C(=O)C(C)N)cc1C (stereo not given)
[1]
  GI50: > 100 µM (inactive)
[55]
  GI50: > 100 µM (inactive)
[2]
  GI50: > 100 µM (inactive)
[56]
  GI50: > 100 µM (inactive)
[4]
  GI50: > 100 µM (inactive)
[5]
  GI50: > 100 µM (inactive)
[6]
  GI50: > 100 µM (inactive)
[7]
  GI50: > 100 µM (inactive)
[8]
  GI50: > 100 µM (inactive)
[9]
  GI50: > 100 µM (inactive)
[11]
  GI50: > 100 µM (inactive)
[12]
  GI50: > 100 µM (inactive)
[13]
  GI50: > 100 µM (inactive)
[15]
  GI50: > 100 µM (inactive)
[17]
  GI50: > 100 µM (inactive)
[18]
  GI50: > 100 µM (inactive)
[19]
  GI50: > 100 µM (inactive)
[20]
  GI50: > 100 µM (inactive)
[21]
  GI50: > 100 µM (inactive)
[22]
  GI50: > 100 µM (inactive)
[23]
  GI50: > 100 µM (inactive)
[57]
  GI50: > 100 µM (inactive)
[24]
  GI50: > 100 µM (inactive)
[25]
  GI50: > 100 µM (inactive)
[26]
  GI50: > 100 µM (inactive)
[27]
  GI50: > 100 µM (inactive)
[28]
  GI50: > 100 µM (inactive)
[29]
  GI50: 41.5 µM (inactive)
[30]
  GI50: > 100 µM (inactive)
[31]
  GI50: > 100 µM (inactive)
[33]
  GI50: > 100 µM (inactive)
[34]
  GI50: > 100 µM (inactive)
[35]
  GI50: > 100 µM (inactive)
[37]
  GI50: > 100 µM (inactive)
[38]
  GI50: > 100 µM (inactive)
[39]
  GI50: > 100 µM (inactive)
[40]
  GI50: > 100 µM (inactive)
[41]
  GI50: > 100 µM (inactive)
[42]
  GI50: > 100 µM (inactive)
[58]
  GI50: > 100 µM (inactive)
[44]
  GI50: > 100 µM (inactive)
[45]
  GI50: > 100 µM (inactive)
[46]
  GI50: > 100 µM (inactive)
[47]
  GI50: > 100 µM (inactive)
[48]
  GI50: > 100 µM (inactive)
[49]
  GI50: > 100 µM (inactive)
[50]
  GI50: > 100 µM (inactive)
[51]
  GI50: > 100 µM (inactive)
[52]
  GI50: > 100 µM (inactive)
[53]
  GI50: > 100 µM (inactive)
[54]
  GI50: > 100 µM (inactive)

From ChEMBL document CHEMBL1201862, “PubChem BioAssay data set” (2004)
